Reference: patent US20100273750A1, “SEROTONIN RECEPTOR ANTAGONISTS FOR TREATING ARTHRITIS” (IMPERIAL INNOVATIONS LIMITED, priority 2007, published 2010)
“Also recorded” adds a separate entry of the source. Counter-ions that a name gives are not always drawn.

Assays:
[1] = test system: TLR3 ligand poly IC induced IP-10; assay: Poly IC induced IP-10 production in human macrophages (ELISA); format: cell-based
Protocol: (§1) Macrophages or RA synovial membrane cell cultures were stimulated with 10 ng/ml chloroform-extracted LPS, 10 ng/ml Pam3, 10 ng/ml Flagellin, 10 ng/ml Malp-2, 20 μg/ml poly IC, 2 μM CpG (human/mouse) or 1 μg/ml R-848 in complete media for 6 h. Supernatants from RA cultures were harvested after 24 hours. All reagents other than LPS were free from LPS contamination as assessed using the limulus amebocyte lysate (LAL) assay from Cambrex (USA).
(§2) Sandwich ELISAs were employed to measure TNF, (Pharmingen, UK). IP-10 (R&D, USA) and IL-1β (Bioscource. USA). Absorbance was read on a spectrophotometric ELISA plate reader (Labsystems Multiscan Biochromic) and analyzed using Ascent software V2.6 (Thermo Labsystems, Cambridge, United Kingdom). All results are expressed as the mean cytokine concentration±SD obtained from triplicate cultures per condition.
(§3) RA synovial membrane cells were isolated from patients undergoing joint replacement surgery as previously described (Foxwell et al., Proc. Natl. Acad. Sci. USA 95, 8211-8215, 1998). All patients gave written informed consent and the study was approved by the local ethics committee. Immediately after isolation, cells were used for mRNA analysis, stained by FACS or cultured at 1×10^5 cells/well in 96-well tissue culture plates (Falcon, UK) in RPMI 1640 containing 10% (v/v) FBS and 100 U/ml penicillin/streptomycin. Primary human synovial fibroblasts were cultured as described previously (Butler et al. Eur. Cytokine Netw. 5:441-8, 1994). Peripheral blood monocytes were isolated and cultured as previously described (Foxwell et al. Proc. Natl. Acad. Sci. USA 95, 8211-8215, 1998). Macrophages were derived from monocytes after differentiation for 4 days with 100 ng/ml M-CSF (PeproTech, UK). The mouse macrophage cell line RAW 264.7 was maintained in Dulbecco's modified Eagle's medium supplemented with 10% fetal bovine serum.
Primary human macrophages were incubated with 5 μg/ml of GBR12909, 5 μg/ml of clotrimazole, 5 μg/ml of Propidium iodide (PI), 30 μg/ml mianserine hydrochloride and 30 μg/ml promazine hydrochloride for 30 minutes and then stimulated for 6 hours with the TLR4 ligand LPS (FIG. 7A), with R848 a TLR7/8 ligand (FIG. 7, Graph B), or with poly IC a TLR3 ligand (FIG. 7C). Supernatants were collected and measured for TNF or IP-10.

[2] = test system: TLR4 ligand LPS induced TNF; assay: LPS induced TNF production in primary human macrophages (ELISA); format: cell-based; settings: 30 minutes preincubation
Protocol: as §1, §2, §3
Primary human macrophages, murine RAW 264.7 cells and synovial fibroblasts were incubated with 30 μg/ml mianserine hydrochloride for 30 minutes and then stimulated for 6 hours with TLR ligands (R-848, Pam3, LPS, flagellin, malp-2, poly IC or CpG).

[3] = test system: TLR7/8 ligand R-848 induced TNF; assay: R-848 induced TNF production in primary human macrophages (ELISA); settings: 1 μg/ml R-848 for 6 hours
[4] = test system: RA synovial membrane cultures; assay: Spontaneous cytokine release from RA synovial membrane cultures (ELISA); format: cell-based, human
[5] = test system: rheumatoid synovial membrane cultures; assay: TNF production in rheumatoid synovial membrane cultures stimulated with TLR ligands (ELISA); format: cell-based, human
Protocol: as §1, §2, §3
To check if these TLRs were functional in synovial membrane cultures, cells were stimulated with the appropriate TLR ligands at the time of seeding the cells (FIG. 5, Graph C). […]

[6] = test system: RA synovial membrane cultures; assay: Spontaneous cytokine release from RA synovial membrane cultures (ELISA); format: cell-based, human; settings: 10 μg/ml, 20 μg/ml and 30 μg/ml
Protocol: as §1, with “hours.” for “hours. All reagents other than LPS were free from LPS contamination as assessed using the limulus amebocyte lysate (LAL) assay from Cambrex (USA).”
as §2, §3
Rheumatoid arthritis synovial membrane cells were cultured for 24 hours in the presence of media alone or media containing 30 μg/ml mianserine hydrochloride. Supernatants were harvested and levels of cytokines (A) TNF (n=16) were measured by ELISA. […] A students paired t-test was used to analyse the data.

[7] = 5 μg/ml, 30 minutes preincubation
[8] = 30 μg/ml, 10 ng/ml LPS for 6 hours
[9] = dose dependant, best inhibition at 100 μM, 24 hours, n=4

With `CC[N+](C)(CC)CCC[n+]1c(-c2ccccc2)c2cc(N)ccc2c2ccc(N)cc21.[I-].[I-]` [Propidium iodide] the “inhibition of Poly IC induced IP-10 production” value ([1]; 5 μg/ml, poly IC for 6 hours) was “able to inhibit”, the “inhibition of LPS induced TNF production” value ([2]; 5 μg/ml, LPS for 6 hours) was “None of the drugs tested were able to inhibit” and the “inhibition of R-848 induced TNF production” value [3, 7] was “only the serotonin receptor antagonists (mianserine hydrochloride and promazine hydrochloride) were able to suppress”. For the same compound, the “inhibition of spontaneous TNF production” value ([4]; 5 μg/ml, 24 hours) was “did not lead to a significant decrease”.

With `CCOCc1nc2c(N)nc3ccccc3c2n1CC(C)(C)O` [R-848, resiquimod] the “TNF production increased on stimulation” value ([5]; 1 μg/ml, TLR7/8 ligand, P<0.0001, n=11) was 515%±76.

With `Clc1ccccc1C(c1ccccc1)(c1ccccc1)n1ccnc1` [clotrimazole, Clotrimazole] the “inhibition of Poly IC induced IP-10 production” value ([1]; 5 μg/ml, poly IC for 6 hours) was “able to inhibit”, the “inhibition of LPS induced TNF production” value ([2]; 5 μg/ml, LPS for 6 hours) was “None of the drugs tested were able to inhibit” and the “inhibition of R-848 induced TNF production” value [3, 7] was “only the serotonin receptor antagonists (mianserine hydrochloride and promazine hydrochloride) were able to suppress”. For the same compound, the “inhibition of spontaneous TNF production” value ([4]; 5 μg/ml, 24 hours) was “did not lead to a significant decrease”.

In the case of `CC(C)Cn1cnc2c(N)nc3ccccc3c21` [imiquimod], the “stimulation of cytokine release over spontaneous levels” value ([5]; 1 μg/ml, TLR7 ligand) is reported as “unable to stimulate further release of cytokines”.

In the case of `CN1C[C@H](CNC(=O)OCc2ccccc2)C[C@@H]2c3cccc4c3c(cn4C)C[C@H]21` [metergoline], the “inhibition of R-848 induced TNF production” value ([3]; 10 μg/ml, 30 minutes preincubation) is reported as “able to inhibit” and the “inhibition of spontaneous TNF production” value ([4]; 10 μg/ml, 24 hours) is reported as “able to inhibit”.

With `CSc1ccc2c(c1)C(N1CCN(C)CC1)Cc1ccccc1S2` (stereo not shown) [methiothepin] the “inhibition of R-848 induced TNF production” value [3, 7] was “able to inhibit” and the “inhibition of spontaneous TNF production” value ([4]; 5 μg/ml, 24 hours) was “able to inhibit”.

`Cc1nccn1CC1CCc2c(c3ccccc3n2C)C1=O` (stereo not shown) [ondansetron] was tested, and the “inhibition of LPS induced TNF production” value [2, 8] was “not”, the “inhibition of R-848 induced TNF production” value ([3]; 30 μg/ml, 30 minutes preincubation) was “significantly inhibits” and the “inhibition of R-848 induced TNF production” value ([3]; 30 μg/ml, 30 minutes preincubation, listed as Ondansetron) was “able to inhibit”. The “inhibition of R-848 induced TNF production, dose dependence” value ([3]; 5, 10 or 20 μg/ml, 30 minutes preincubation) was “dose dependant inhibition” and the “inhibition of spontaneous TNF production” value ([4]; 20 μg/ml, 24 hours) was “able to inhibit; also recorded: significant inhibition”.

For `CN(C)CCCN1c2ccccc2Sc2ccccc21` [promazine hydrochloride], the “inhibition of TNF, dose dependence” value [6] was “dose dependently inhibited”, the “inhibition of Poly IC induced IP-10 production” value ([1]; 30 μg/ml, 20 μg/ml poly IC for 6 hours, hydrochloride) was “inhibits TLR3 induced signalling; also recorded: able to inhibit” and the “inhibition of LPS induced TNF production” value [2, 8] was “None of the drugs tested were able to inhibit”. For the same compound, the “inhibition of R-848 induced TNF production” value ([3]; 30 μg/ml, 30 minutes preincubation, hydrochloride) was “able to suppress” and the “inhibition of R-848 induced TNF production” value ([3]; 30 μg/ml, 30 minutes preincubation, listed as Promazine hydrochloride, hydrochloride) was “decreased TNF production”.

With `Cc1nc2sccn2c(=O)c1CCN1CCC(=C(c2ccc(F)cc2)c2ccc(F)cc2)CC1` [ritanserin] the “inhibition of R-848 induced TNF production” value [3, 7] was “able to inhibit” and the “inhibition of spontaneous TNF production” value ([4]; 5 μg/ml, 24 hours) was “able to inhibit”.

In the case of `NCCc1c[nH]c2ccc(O)cc12` [serotonin (5-HT), 5-hydroxytryptamine], the “inhibition of R-848 induced TNF production (TLR8 signaling)” value ([3]; 10 or 100 μM, 30 minute preincubation) is reported as “not inhibited”.

For Chloroquine diphosphate salt, the “inhibition of spontaneous IL-1 release” value [4, 9] was “inhibited” and the “inhibition of spontaneous TNF release” value [4, 9] was “inhibited”.

With Poly IC the “TNF production increased on stimulation” value ([5]; 20 μg/ml, TLR3 ligand, P=0.0002, n=12) was 334%±60.

ketanserine tartrate was tested, and the “inhibition of TNF, dose dependence” value ([4]; 10 μM, 100 μM) was “dose dependently inhibited”.
